Experimental data as given in patent US20250179057A1, “MEK IMMUNE ONCOLOGY INHIBITORS AND THERAPEUTIC USES THEREOF” (Immuneering Corporation, priority 2022, published 2025).

Columns and labels:
[1] = system: phospho-ERK in A549 (KRAS G12S) cells; experiment: Cell-based pERK (pERK:tERK) in A549 cells; design: A549-pERK 10 uM, 2 h: unit not given here; details: for A549-pERK (10 nM, 2 h): phospho- to total protein ratio normalized to DMSO control (Table 9); for A549-pERK 10 uM, 2 h: phospho- to total protein ratio normalized to DMSO control
Description: Media components, reagents and buffers for Western Blot: All cell culture media components were obtained from ThermoFisher Scientific. […] Laemmli sample loading 4× buffer (ThermoFisher Scientific, Cat No. NP0007). MOPS/SDS electrophoresis running buffer (GenScript, Cat No. M00138).
Subculture conditions: Adherent cells were grown to approximately 90% confluency, culture medium was aspirated and the cell layer was rinsed with PBS. […] Eight mL media was added, cells were spun down at 1000×g for 5 minutes. Cell pellet was re-suspended in 10 mL media and an appropriate volume was inoculated into a new culture flask.
Compound (drug) treatment: Cells were plated in a 6-well plate at a density of 250,000-300,000 cells/well in 3 mL media and incubated 37° C. in a humidified, 5% CO2 incubator. […] These solutions were added to the cells (3 uL/well), mixed by swirling the plate, and incubated at 37° C. in a humidified, 5% CO2 incubator for 2 hours.
Cell lysis and protein estimation: Cells were washed with PBS, and scraped in 50 μL of lysis buffer containing protease and phosphatase inhibitors. Cell lysates were stored at −20° C. Cell lysates were thawed and spun at 12,000 rpm for one minute, 3 ul of the supernatant was added to 500 μL of Coomassie blue reagent following by 500 μL of water. […] Protein standards were used (0-20 mg/mL) to calculate protein concentrations of test samples.
All samples were heated at 95° C. for 5 minutes, cooled to room temperature and spun down. […] After the run, gel was removed and protein transfer was done using iBlot for 7 minutes, as per manufacturer's recommendations. After the transfer, nitrocellulose membrane was incubated on a shaker in 5 mL of blocking buffer at room temperature for 1 hr. The blot was then incubated overnight on a shaker in 5 ml of blocking buffer containing 0.2% Tween-20 and primary antibody, at room temperature. Anti-phospho-STAT3 antibody was used at a dilution of 1:500, the other 3 primary antibodies were used at a dilution of 1:1000.
Next day, the blot was washed 3 times for 10 min each with 10 mL of TBST followed by incubation on a shaker in 5 ml of blocking buffer containing 0.2% Tween-20 and 0.5 ul of the IRDye labeled secondary antibodies, diluted 1:10000, at room temperature for 1 hr. The blot was then washed 3 times for 10 min each with 10 mL of TBST and dried between sheets of paper towels. Imaging was done using LICOR's Odyssey imaging system, quantitation was done using their software, Image Studio version 3.1.
(§1) Materials and Methods: A549 or A375 cells were seeded in 6-well plates at an appropriate seeding density on day 0. On day 2 or 3, after checking the health and confluency of cells, the media was aspirated and replaced with 1 mL media containing a predetermined concentration of compound and incubated for 2 hours. After 2 hours, the media was aspirated, and the cells washed 2 times with cold PBS. Cells were lysed on ice, with 50 uL 1×CST lysis buffer +1 mM PMSF for 5 minutes. After 5 minutes, cells were removed using a scraper and transferred to cold 1.5 mL tubes, and centrifuged for 10 min, 4° C., 14,000×g. Supernatant was gently removed and snap frozen in liquid nitrogen. Protein concentration of the lysate was determined using Bradford Reagent (analyzed using SpectraMax M2E) and diluted to 1 mg/mL or pERK or 1.5 mg/mL for pMEK analysis. […] All dilutions were in Milk-free antibody diluent.
They were grown in T75 flasks in DMEM containing 10% FBS and Pen-Strep. at 37° C. in a humidified, 5% CO2 incubator. The adherent cells were grown to about 90% confluency, culture medium was aspirated, and the cell layer was rinsed with PBS. […] Eight mL media was added, cells were spun down at 1000 g for 5 minutes. Cell pellet was re-suspended in 10 mL media and an appropriate volume was inoculated into a new culture flask. Cells were plated in a 6-well plate at a density of 250,000-300,000 cells/well in 3 mL media and incubated 37° C. in a humidified, 5% CO2 incubator.

[2] = system: phospho-MEK in A549 cells; experiment: Cell-based pMEK (pMEK:tMEK, CRAF bypass) in A549 cells; details: 2 h, pMEK to total MEK normalized to DMSO control
Description: as §1
(§2) A549 or […] cells were treated in duplicate for two hours with compounds at varying concentrations. After two hours, the cells were lysed, snap frozen, and stored at −80° C. After storage, the lysate was quantified with the Bradford assay. Before the lysates were prepared to run on the Jess, the lysates were diluted to 1 mg/mL for pERK analysis and 1.5 mg/mL pMEK analysis using quantitative Western blotting. ERK and MEK phosphorylation levels were estimated by taking the ratio of phospho-protein to total protein and normalizing to the DMSO control.
as §2

Compound | A549-pERK (10 nM, 2 h) [1] | A549-CRAF BP 100 nM, 2 h [2] | pERK:tERK (10 nM 2 h A549) ([1]; Phospho-ERK Screen in A549 (KRAS G12S), head 10 nM 2 h, title 10 μM for 2 hours) | A549-pERK 10 uM, 2 h [1]
CNS(=O)(=O)Nc1cccc(Cc2c(CN3CCNCC3)c3cc(Cl)c(OC(=O)N(C)C)cc3oc2=O)c1F [Compound 21] | 20.4 | 47.9 (mean, n = 2) | – | –
CCN(CC)Cc1c(Cc2cccc(NS(=O)(=O)NC)c2F)c(=O)oc2cc(OC(=O)N(C)C)ccc12 [Compound 73] | 77.7 | 33.9 | – | –
Cc1c(Cc2ccnc(NS(=O)(=O)C3CCC3)c2F)c(=O)oc2cc(OC(=O)N(C)C)ccc12 [Compound 125] | 54.4 | 41.7 | – | –
CNS(=O)(=O)Nc1cccc(Cc2c(CN(C)C3CC3)c3ccc(OC(=O)N(C)C)cc3oc2=O)c1F [Compound 82] | 64.9 | 72.3 | – | –
CCS(=O)(=O)Nc1nccc(Cc2c(C)c3ccc(OC(=O)N(C)C)cc3oc2=O)c1F [Compound 119] | 64.8 | 66.1 | – | –
CCS(=O)(=O)Nc1cccc(Cc2c(CN3CCNCC3)c3cc(Cl)c(OC(=O)N(C)C)cc3oc2=O)c1F [Compound 147] | 21.7 | 46.4 | 28 (n = 2) | –
CNS(=O)(=O)Nc1nccc(Cc2c(C)c3cc(Cl)c(OC(=O)N(C)C)cc3oc2=O)c1F [Compound 111] | 4.63 | 48.6 (mean, n = 2) | – | –
CNS(=O)(=O)Nc1cccc(Cc2c(CNc3cncs3)c3ccc(OC(=O)N(C)C)cc3oc2=O)c1F [Compound 91] | 74.6 | 84.2 | – | –
Cc1c(Cc2ccnc(NS(=O)(=O)C3CC3)c2F)c(=O)oc2cc(OC(=O)N(C)C)ccc12 [Compound 112] | 46.3 | 52.9 (mean, n = 2) | – | –
CCS(=O)(=O)Nc1cccc(Cc2c(CN(C)C)c3cc(Cl)c(OC(=O)N(C)C)cc3oc2=O)c1F [Compound 132] | 62.6 | 57.8 | – | –
CNS(=O)(=O)Nc1cccc(Cc2c(CN(C)CC#N)c3ccc(OC(=O)N(C)C)cc3oc2=O)c1F [Compound 87] | 63.8 | 95.8 | – | –
Cc1c(Cc2cccc(NS(=O)(=O)C3CCC3)c2F)c(=O)oc2cc(OC(=O)N(C)C)ccc12 [Compound 118] | 21.1 | 39.1 (mean, n = 2) | – | –
CNS(=O)(=O)Nc1nccc(Cc2c(C)c3cc(C)c(OC(=O)N(C)C)cc3oc2=O)c1F [Compound 110] | 5.92 | 56.6 (mean, n = 2) | – | –
CNS(=O)(=O)Nc1cccc(Cc2c(CN(C)C3CCC3)c3ccc(OC(=O)N(C)C)cc3oc2=O)c1F [Compound 86] | 96.4 | 53.2 | – | –
CNS(=O)(=O)Nc1cccc(Cc2c(CNCC(F)(F)F)c3ccc(OC(=O)N(C)C)cc3oc2=O)c1F [Compound 75] | – | 66.5 | – | –
CNS(=O)(=O)Nc1cccc(Cc2c(CC(=O)N3CCN(C)CC3)c3ccc(OC(=O)N(C)C)cc3oc2=O)c1F [Compound 195] | 113 | – | – | –
CNS(=O)(=O)Nc1cccc(Cc2c(CNCC3CC3)c3ccc(OC(=O)N(C)C)cc3oc2=O)c1F [Compound 26] | 94.2 | – | – | –
CNS(=O)(=O)Nc1cccc(Cc2c(CN3CCN(C(=O)c4ccccc4)CC3)c3ccc(OC(=O)N(C)C)cc3oc2=O)c1F [Compound 65] | 100 | – | – | –
CNS(=O)(=O)Nc1cccc(Cc2c(CN3CC(C(N)=O)C3)c3ccc(OC(=O)N(C)C)cc3oc2=O)c1F [Compound 173] | 97.7 | – | – | –

Compound | A549-pERK (10 nM, 2 h) [1] | A549-CRAF BP 100 nM, 2 h [2] | pERK:tERK (10 nM 2 h A549) ([1]; Phospho-ERK Screen in A549 (KRAS G12S), head 10 nM 2 h, title 10 μM for 2 hours) | A549-pERK 10 uM, 2 h [1]
CNS(=O)(=O)Nc1cccc(Cc2c(CC(=O)N(C)C)c3ccc(OC(=O)N(C)C)cc3oc2=O)c1F [Compound 196] | 106 | – | – | –
CNS(=O)(=O)Nc1cccc(Cc2c(CN3CC4(COC4)C3)c3ccc(OC(=O)N(C)C)cc3oc2=O)c1F [Compound 152] | 70.5 | – | – | –
CNS(=O)(=O)Nc1cccc(Cc2c(CO)c3ccc(OC(=O)N(C)C)cc3oc2=O)c1F [Compound 180] | 75 | – | – | –
CNS(=O)(=O)Nc1cccc(Cc2c(CNC(=O)OCCO)c3ccc(OC(=O)N(C)C)cc3oc2=O)c1F [Compound 106] | – | – | – | 27.88
C#CCN(C)Cc1c(Cc2cccc(NS(=O)(=O)NC)c2F)c(=O)oc2cc(OC(=O)N(C)C)ccc12 [Compound 76] | 62.1 | – | – | –
CNS(=O)(=O)Nc1cccc(Cc2c(CN3CCN(C)CC3)c3ccc(OC(=O)N(C)C)cc3oc2=O)c1F [Compound 15] | 73.8 | – | – | –
CNS(=O)(=O)Nc1cccc(Cc2c(CNCc3cccc(C(F)(F)F)c3)c3ccc(OC(=O)N(C)C)cc3oc2=O)c1F [Compound 59] | 105 | – | – | –
CNS(=O)(=O)Nc1cccc(Cc2c(CNCCC(F)(F)F)c3ccc(OC(=O)N(C)C)cc3oc2=O)c1F [Compound 66] | 104 | – | – | –
CNS(=O)(=O)Nc1cccc(Cc2c(CNc3nccs3)c3ccc(OC(=O)N(C)C)cc3oc2=O)c1F [Compound 94] | 93.5 | – | – | –
CNS(=O)(=O)Nc1cccc(Cc2c(CNCC(=O)N(C)CC#N)c3ccc(OC(=O)N(C)C)cc3oc2=O)c1F [Compound 217] | 96.7 | – | – | 11.2
CNS(=O)(=O)Nc1cccc(Cc2c(CNCC(=O)N(C)c3ccccc3)c3ccc(OC(=O)N(C)C)cc3oc2=O)c1F [Compound 220] | 109 | – | – | 4.28
CCN(CC)C(=O)Oc1ccc2c(CN(C)C)c(Cc3cccc(NS(=O)(=O)NC)c3F)c(=O)oc2c1 [Compound 126] | 91.4 | – | – | –
CCC(=O)NCc1c(Cc2cccc(NS(=O)(=O)NC)c2F)c(=O)oc2cc(OC(=O)N(C)C)ccc12 [Compound 207] | 97.4 | – | – | 11.35
CNS(=O)(=O)Nc1cccc(Cc2c(CNC(=O)c3nn[nH]n3)c3ccc(OC(=O)N(C)C)cc3oc2=O)c1F [Compound 213] | 100 | – | – | 70.14
CNS(=O)(=O)Nc1cccc(Cc2c(CN3CC4CC3CN4)c3ccc(OC(=O)N(C)C)cc3oc2=O)c1F (centres unmarked) [Compound 138] | 96.9 | – | – | –
CNS(=O)(=O)Nc1cccc(Cc2c(CN(C)C)c3ccc(OC(=O)N4CCN(C)CC4)cc3oc2=O)c1F [Compound 127] | 110 | – | – | –
CNS(=O)(=O)Nc1cccc(Cc2c(CC(=O)N3CC(OC)C3)c3ccc(OC(=O)N(C)C)cc3oc2=O)c1F [Compound 216] | 89.5 | – | – | 4.51
CNS(=O)(=O)Nc1cccc(Cc2c(CNCC(=O)N3CCNCC3)c3ccc(OC(=O)N(C)C)cc3oc2=O)c1F [Compound 191] | 131 | – | – | 8.6
CNS(=O)(=O)Nc1cccc(Cc2c(CNc3ccnn3C)c3ccc(OC(=O)N(C)C)cc3oc2=O)c1F [Compound 96] | 102 | – | – | –
